Results reported in patent US20120093947A1, “METHOD OF TREATING REACTIVE AIRWAY DISEASE” (UNITED STATES DEPARTMENT OF VETERANS AFFAIRS, priority 2009, published 2012).
Counter-ions that a name gives are not always drawn. Values belong to the molecule of their own block, whether it stands above or below them.

Key:
[1] = biological target: T1, MPO (Homo sapiens, UniProt P05164); assay: Oxidation of β2-agonists by MPO/H2O2, spectrophotometric ΔA315; assay type: biochemical; design: Myeloperoxidase (MPO) from human leucocytes (lyophilized powder); purchased Axxora, LLC (San Diego, Calif.); host or cells: human leucocytes (natural source); settings: 100 μM AscH−, 200 mU/mL MPO, 50 μM H2O2
T1 sequence (P05164 279-745 limits assumed): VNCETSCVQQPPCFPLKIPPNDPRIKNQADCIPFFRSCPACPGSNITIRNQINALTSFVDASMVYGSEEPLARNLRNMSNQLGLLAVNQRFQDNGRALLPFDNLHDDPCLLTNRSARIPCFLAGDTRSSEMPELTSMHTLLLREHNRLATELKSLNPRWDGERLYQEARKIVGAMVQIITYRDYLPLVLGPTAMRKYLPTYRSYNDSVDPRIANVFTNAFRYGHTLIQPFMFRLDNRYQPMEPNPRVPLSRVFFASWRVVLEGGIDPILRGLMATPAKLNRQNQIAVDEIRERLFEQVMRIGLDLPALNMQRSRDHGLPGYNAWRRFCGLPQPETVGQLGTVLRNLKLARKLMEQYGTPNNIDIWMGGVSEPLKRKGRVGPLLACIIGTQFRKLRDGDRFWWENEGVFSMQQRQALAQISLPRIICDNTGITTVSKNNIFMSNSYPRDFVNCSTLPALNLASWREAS
T1 sequence (P05164 165-273 limits assumed): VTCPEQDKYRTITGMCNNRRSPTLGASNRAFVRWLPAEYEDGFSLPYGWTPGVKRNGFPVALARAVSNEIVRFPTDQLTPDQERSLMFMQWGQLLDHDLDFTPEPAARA
Experimental: Spectrophotometric Measurements. Spectra are measured using an Agilent diode array spectrophotometer model 8453 (Agilent Technologies, Inc., Santa Clara, Calif.). Oxidation of β2-agonists is studied by measuring absorption spectra at designated time points following reaction starts. Samples are prepared in 50 mM acetate buffer (pH 5.0), 50 and 100 mM phosphate buffers (pH 7.0 and 8.0) and 100 mM Tris/HCl (pH 9.19). All buffers contain DTPA (100 and 200 μM) and measurements are performed at an ambient temperature of 20° C. The reaction is started by the addition of a small aliquot of H2O2 (2, 5 or 10 μL), or glucose oxidase (1 μL), if glucose/glucose oxidase was used to generate H2O2, to a sample containing a studied compound, peroxidase and, if required, an inhibiting co-factor. Time course measurements are carried out following changes in absorbance at 315 nm in 15 second intervals versus absorbance at 800 nm, where none of the compounds absorb. The 315 nm wavelength is chosen because β2-agonists' oxidation products absorb intensely near 315 nm, and because it is close to the absorption maximum of tyrosine dimers.
The concentration of AscH^− in airway fluid was estimated to be near 100 μM (Id.), so we use concentrations within this physiological range. […] AscH^− affects oxidation of salbutamol and fenoterol similarly, causing delay in the net oxidation of both drugs. A315 increases after a lag period, the duration of which depends on AscH^− concentration. Net oxidation of the drugs occurs only when AscH^− is consumed. […] This is understandable given that the concentration of H2O2 was only 50 μM and the peroxide was used to oxidize both the drugs and AscH^−. […] The proposed mechanisms of inhibition are reactions A and B, shown below, which reveal that recovery of the drug occurs at the expense of AscH^−, which is oxidized to the ascorbate radical (A^•−).
[…]. The extent of oxidation is expressed as ΔA315±SE versus control (in %) during 22 minutes of reaction at 20° C. Values are the mean of at least duplicate determinations.

[2] = biological target: T2, LPO (Bos taurus, UniProt P80025); assay: Nitration of salbutamol by LPO/H2O2/NO2−, A410; assay type: biochemical, bovine; settings: 100 μM salbutamol, 67 nM LPO, 4 mM H2O2, 3.5 mM NaNO2
T2 construct: Lactoperoxidase (LPO) from bovine milk (EC 1.11.1.7); purchased Sigma-Aldrich Co. (St. Louis, Mo.); host or cells: bovine milk (natural source)
Experimental: Spectrophotometric Measurements. Spectra are measured using an Agilent diode array spectrophotometer model 8453 (Agilent Technologies, Inc., Santa Clara, Calif.). Nitration of salbutamol is studied by measuring absorption spectra at designated time points following the start of the reaction. Samples are prepared in 100 mM phosphate buffers (pH 7.0). All buffers contained DTPA (100 μM) or are pretreated with Chelex-100 before use, and measurements are performed at ambient temperature of 20° C. Typically, the reaction is started by the addition of a small aliquot of H2O2 or the desired peroxidase. Time course measurements are carried out following changes in absorbance at 410 nm in 30 second intervals versus absorbance at 800 nm, where none of the compounds absorb.
Ascorbate (AscH^−) is an effective natural antioxidant protecting airways from oxidative injury. Cross et al., (1994) Environ. Health Perspect. 102 (suppl. 10):185-191. Its concentration in the respiratory tract lining fluid is estimated to be near 100 μM (Id.). We examine the effect of AscH^− on nitration of 100 μM salbutamol by 67 nM LPO, 4 mM H2O2, and 3.5 mM of NaNO2 by measuring absorption at 410 nm. […] The duration of the lag period depends on AscH^− concentration. […] See, e.g., Reszka et al. (1999) Free Radic. Biol. & Med. 26:669-678.
As noted earlier, methimazole is an antithyroid drug, an effective inhibitor of LPO activity. 100 μM of salbutamol is reacted with 73 nM LPO, 3.5 mM NaNO2, and 4 mM H2O2 at pH buffer 7.0 in the presence of 0, 27, 55, and 109 μM methimazole (shown in FIG. 9, section A, traces a-d, respectively). Traces c and d also indicate by arrow when additional LPO is added to the system. […] In contrast to effects exerted by AscH^− or SCN^−, methimazole-dependent inhibition is permanent and is probably due to inactivation of the enzyme, since a second dose of LPO reactivates the process (FIG. 9, section A, trace c).
Dapsone, an anti-inflammatory and anti-leprotic agent, is a potent inhibitor of LPO and MPO. See, e.g., Kettle et al. (1991) Biochem. Pharmacol. 41(10):1485-1492; Bozeman et al. (1992) Biochem. Pharmacol. 44(2):553-563. 97 μM of salbutamol is reacted with 65 nM LPO, 3.4 mM NaNO2, and 4 mM H2O2 at pH buffer 7.0 in the presence of 0, 2.5, 5, 10, 50, and 100 μM dapsone (shown in FIG. 10, traces a-f, respectively). The arrows in traces d and e of FIG. 10 indicate where additional LPO is added to the system. […] Dapsone at 50 μM inhibited nitration by approximately 86%. Given the high concentrations of NaNO2 and H2O2 used in this system, dapsone appears to be a potent blocker of nitration.
The extent of nitration is expressed as a change in ΔA410 versus control (dapsone omitted) taken as 100% after 10, 30, and 60 minute reactions for LPO, MPO, and EPO nitrating systems, respectively. Results equal the means±SE of at least two measurements. In the LPO system, 100 μM of salbutamol, 3.4 mM of NaNO2, 4 mM of H2O2, and 65 nM of LPO is used. In the MPO system, 50 μM of salbutamol, 5.0 mM of NaNO2, 5 mM of H2O2, and 0.2 U/mL of MPO is used. In the EPO system, 50 μM of salbutamol, 5 mM of NaNO2, 2 mM of H2O2, and 0.075 U/mL of EPO is used. All reactions were carried out in pH 7.0 phosphate buffer containing DMSO (5% v/v). The term “nitrophenols” includes nitrosalbutamol (N-Sal) and salbutamol-derived nitrophenol (N—ArOH).

[3] = biological target: T1, MPO; assay: EPR spin trapping of GS radicals (DMPO/SG adduct) with MPO/H2O2; assay type: biochemical; design: Myeloperoxidase (MPO) from human leucocytes (lyophilized powder); purchased Axxora, LLC (San Diego, Calif.); settings: 2 μM fenoterol, 4 mM GSH, 18 mM DMPO, pH 7.0
Experimental: (§1) The sample is transferred to a flat aqueous EPR cell and recording is started one minute after initiation of the reaction. The spectra of DMPO adducts are recorded using the same parameters as above but the sweeping rate is 8 mT/41.92 s. The EPR spectra of ascorbate radicals are obtained using microwave power 5 mW, modulation amplitude 0.05 mT, scan rate 4 mT/41.92 s. EPR spectra shown are an average of 5 scans and represent results of a typical experiment.
Spectrum e is the same reaction as spectrum d with the exception that no GSH is used.
The EPR spectrum generated in the presence of 2 μM fenoterol (FIG. 3, section B, spectrum a) is approximately a two-fold more intense than that observed in the presence of 80 μM salbutamol (FIG. 3, section A, spectrum b). This confirms the higher reactivity of a metabolite(s) derived from fenoterol. […] The higher stimulatory action of fenoterol, when compared to that of salbutamol, implies that the compound's resorcinol moiety may play a dominating role in the interaction with GSH. The proposed cycle of redox reactions involving fenoterol, AscH^− and GSH is depicted in reaction B, presented earlier.

[4] = biological target: T1, MPO; assay: EPR of ascorbate radicals during oxidation of β2-agonists by MPO/H2O2; assay type: biochemical; design: Myeloperoxidase (MPO) from human leucocytes (lyophilized powder); purchased Axxora, LLC (San Diego, Calif.); host or cells: human leucocytes (natural source); settings: 100 μM ascorbate, MPO 0.01 U/250 μL, H2O2 39 μM, pH 7.0
Experimental: as §1
Formation of Asc^•− during oxidation of β2-agonists by MPO/H2O2 in the presence of 100 μM AscH^− is investigated by EPR. […] Spectrum A is the EPR of 100 μM ascorbate without additives. Sprectrun B is the EPR spectrum of 100 μM ascorbate in the presence of MPO (0.01 U/250 μL) and H2O2 (39 μM). Spectra C and D are the EPR spectra of 100 μM ascorbate in the presence of MPO (0.01 U/250 μ), H2O2 (39 μM), and 40 μM and 100 μM of salbutamol, respectily. Spectrum E is the EPR spectrum of 100 μM ascorbate in the presence of MPO (0.01 U/250 μL), H2O2 (39 μM) and 20 μM of fenoterol. All reactions occur in pH 7.0 buffer (50 mM) containing DTPA (0.2 mM).

[5] = system: murine airway smooth muscle cells; assay: cAMP production in airway smooth muscle cells, fluorescent detection assay; assay type: cell-based; settings: 15 minutes, read-out: EC50, stimulation of cAMP synthesis
Experimental: For these studies, cells are grown to near-confluence in 96-well plates. After washing with PBS, cells were treated for 15 minutes with either PBS vehicle or the indicated concentration of isoproterenol. The reaction is then halted using the supplied stop buffer, after which the resultant sample is processed for fluorescent detection per the manufacturer's instructions. The cAMP content for each sample is determined by extrapolating values to a standard curve prepared with known concentrations of cAMP.

[6] = human
Experimental: Exhaled breath condensate (“EBC”) samples. EBC samples are collected during 10 min of quiet breathing through a single-use disposable RTube collector (Respiratory Research, Inc., Charlottesville, Va., USA) while subjects are wearing a nose clip. The aluminum sleeve of the device is cooled to an initial temperature of −20° C. prior to collection. After collection, a plunger is used to pool the condensed material within the tube into a single sample (about 1.0 ml). Samples are stored in the reaction tube at a temperature of −80° C. until thawed and processed for analysis.
Mass Spectrometry. The experiment is performed on a Thermo Fisher Scientific LTQ-FT, a hybrid instrument consisting of a linear ion trap and a Fourier transform ion cyclotron resonance mass spectrometer. Liquid chromatography separation of the sample components utilizes a Waters XBridge™ C18 3.5 μm 2.1×100 mm column, Finnigan Surveyor MS pump, and Finnigan Micro AS autosampler. A 200 μL/min gradient elution of water and acetonitrile, both containing 0.1% formic acid, occurs as follows: 5% to 32% acetonitrile in first eight minutes followed by a rapid rise to 95% acetonitrile within the next minute, held at 95% for an additional seven minutes. […]

Oxidation of fenoterol by MPO/H2O2 (A315 versus time) ([1]; 200 μM fenoterol): completely inhibited
Oxidation of salbutamol by MPO/H2O2 (A315 versus time) ([1]; 1 mM salbutamol): completely inhibited
Nitration of salbutamol by LPO/H2O2/NO2− (A410 versus time) ([2]; AscH− at near physiological concentrations (55, 88, 109 μM)): only transiently inhibits
Nitration of salbutamol by LPO/H2O2/NO2− (A410 versus time) ([2]; ascorbate ˜1 mM): completely prevents
Molecule: O=C1O[C@H]([C@@H](O)CO)C(O)=C1O [AscH^−, ascorbic acid]

Molecule: CC(Cc1ccc(O)cc1)NCC(O)c1cc(O)cc(O)c1 (stereo not shown) [fenoterol, fenoterol hydrobromide]
EPR spectrum of DMPO/SG adduct, intensity relative to 80 μM salbutamol [3]: two-fold
EPR spectrum of ascorbate radical, more intense than with MPO/H2O2 alone ([4]; 20 μM fenoterol): 270%

EC50 [5]: 24.8 nM
EPR spectrum of ascorbate radical, more intense than with MPO/H2O2 alone ([4]; 40 μM salbutamol): approximately 76%
EPR spectrum of ascorbate radical, more intense than with MPO/H2O2 alone ([4]; 100 μM salbutamol): ~117%
Salbutamol transformation in vivo (nitrophenol of m/z 255.13 in breath condensate) [6]: undergoes oxidation and nitration
Molecule: Salbutamol hemisulfate
